Measured values taken from patent publication US20240246981A1, “[…] DERIVATIVES AS INHIBITORS OF […]-PEPTIDE CYCLOTRANSFERASE AND […]-PEPTIDE CYCLOTRANSFERASE LIKE PROTEIN” (Boehringer Ingelheim International GmbH, priority 2022, published 2024).
Read-outs that look alike come from different tables or passages of the source.

Tests used:
[1] = tested on: SIRPα signalling induced by Raji cells; experiment: Assay B: SIRPα signalling assay using Raji cells; type: cell-based, human
Outline: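 SIRPα signalling induced by Raji cells in a PathHunter reporter line, read as β-galactosidase complementation luminescence. Detection reagent 1 added for 15 min, then reagent 2 for 60 min in the dark, both at room temperature.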

Caco-2 cells = experiment: Assay C: permeability in CACO-2 cells; type: in vitro ADME; conditions: for Permeability A-B: Caco-2, apical to basolateral; for efflux ratio: Caco-2
Outline: (§1)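 Compound in transport solution applied to apical or basolateral donor side for A-B or B-A permeability, 3 filter replicates. Donor sampled at start and end, receiver at intervals up to 2 hours with volume replaced; concentrations by HPLC-MS/MS or scintillation counting.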

[2] = Assay C: permeability in CACO-2 cells; type: in vitro ADME; conditions: human, pH 7.2; for Papp A→B / efflux ratio: compounds of the invention, Table 7
Outline: as §1

QPCT = QPCT (Homo sapiens (Human), UniProt Q16769); experiment: Assay A: biochemical QPCT activity assay (MALDI-TOF MS); conditions: read-out: Inhibition of QPCT: IC50
Chain of QPCT (Q16769 29-361): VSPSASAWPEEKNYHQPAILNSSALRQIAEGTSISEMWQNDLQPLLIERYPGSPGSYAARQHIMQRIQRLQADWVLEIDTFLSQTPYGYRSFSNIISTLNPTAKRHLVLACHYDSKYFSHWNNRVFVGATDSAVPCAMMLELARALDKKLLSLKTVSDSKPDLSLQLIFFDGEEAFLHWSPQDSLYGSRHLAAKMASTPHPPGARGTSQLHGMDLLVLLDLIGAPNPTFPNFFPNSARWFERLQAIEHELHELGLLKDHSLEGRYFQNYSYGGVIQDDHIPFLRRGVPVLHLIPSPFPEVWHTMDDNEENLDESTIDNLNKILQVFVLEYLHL
Outline: (§2)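 Compounds preincubated 10 min at 24 °C with enzyme in 20 mM Tris pH 7.5, 0.1 mM TCEP, 0.01% BSA, 0.001% Tween20; CD47 peptide substrate (final 10 μM for QPCTL, 20 μM for QPCT) reacted 40 min at 24 °C. Pyroglutamate product read by MALDI-TOF MS versus internal standard, normalized to controls; four-parameter fit.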

[3] = tested on: SIRPα signalling induced by A549 cells; experiment: Assay B: SIRPα signalling assay using A549 cells; type: cell-based, human
Outline: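 5000 Raji or A549 cells were cultured 48 h at 37 °C with serially diluted compound (DMSO), then 15000 Jurkat PathHunter SIRPα reporter cells were added for 5 h. Beta-galactosidase luminescence was developed at RT, and IC50 obtained by 4-parameter sigmoidal fit.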

QPCTL = QPCTL (Homo sapiens (Human), UniProt Q9NXS2); experiment: Assay A: biochemical QPCTL activity assay (MALDI-TOF MS); conditions: read-out: Inhibition of QPCTL: IC50
Chain of QPCTL (Q9NXS2 whole entry): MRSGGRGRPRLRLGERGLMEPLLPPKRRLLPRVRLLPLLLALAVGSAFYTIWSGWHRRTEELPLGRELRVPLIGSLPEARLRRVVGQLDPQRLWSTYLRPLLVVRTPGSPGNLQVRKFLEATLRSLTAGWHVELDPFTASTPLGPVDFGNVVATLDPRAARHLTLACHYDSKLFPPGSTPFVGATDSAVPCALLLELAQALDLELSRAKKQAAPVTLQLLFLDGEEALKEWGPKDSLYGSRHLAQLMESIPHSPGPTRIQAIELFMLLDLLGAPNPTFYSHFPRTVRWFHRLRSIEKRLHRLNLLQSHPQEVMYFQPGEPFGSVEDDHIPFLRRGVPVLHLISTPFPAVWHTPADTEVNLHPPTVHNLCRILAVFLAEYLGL
Outline: as §2

[4] = biological target: glutamine acyl cyclase isoenzyme (Homo sapiens (Human), UniProt Q9NXS2); conditions: given in CN 114874186; cited from earlier work
Chain of glutamine acyl cyclase isoenzyme (Q9NXS2 whole entry): as above

[5] = biological target: human glutaminyl cyclase (hQC) (Homo sapiens (Human), UniProt Q16769); conditions: J-S, NCB 2015 supplementary information; read-out: IC50 on isolated hQC; cited from earlier work
Chain of human glutaminyl cyclase (hQC) (Q16769 29-361): as the sequence (Q16769 29-361) above

[6] = Homo sapiens, compounds of the invention, Table 4, read-out: Inhibition of SIRα signalling induced by Raji cells: IC50
[7] = Homo sapiens, prior art compounds, Table 5, read-out: Inhibition of SIRPα signalling induced by Raji cells: IC50
[8] = compounds of the invention, Table 2
[9] = Homo sapiens, compounds of the invention, Table 4, read-out: Inhibition of SIRα signalling induced by A549 cells: IC50
[10] = Homo sapiens, prior art compounds, Table 5, read-out: Inhibition of SIRPα signalling induced by A549 cells: IC50
[11] = prior art compounds, Table 5, read-out: Inhibition of SIRPα signalling induced by Raji cells: IC50
[12] = prior art compounds, Table 5, read-out: Inhibition of SIRPα signalling induced by A549 cells: IC50
[13] = compounds of the invention, Table 7

| SMILES | IC50 [1, 6] | IC50 [1, 7] | Permeability A-B (Caco-2 cells; prior art compounds, Table 8) | efflux ratio (Caco-2 cells; prior art compounds, Table 8) | Papp A→B ([2]; Caco-2, apical to basolateral) | efflux ratio ([2]; Caco-2) | IC50 (QPCT; [8]) | IC50 [3, 9] | IC50 [3, 10] | IC50 (QPCTL; [8]) | IC50 (QPCTL; prior art compounds, Table 3) | IC50 [1, 11] | IC50 (QPCT; prior art compounds, Table 3) | IC50 [3, 12] | other results |
| --- | --- | --- | --- | --- | --- | --- | --- | --- | --- | --- | --- | --- | --- | --- | --- |
| Cn1cnnc1C1CCN(c2c(C#N)cccc2-c2cncc(-n3cccn3)c2)CC1 [compound 6, reference compound] | 220 nM | 9 nM | 0.2 10^−6 cm/s | 65.0 | 3.9 ×10⁻⁶ cm/s | 16.9 | 7 nM | 26 nM | 14 nM | 1 nM | 1 nM | – | – | – | – |
| Nc1ncc(C2CCN(c3ncccc3-c3ccc(F)nc3)CC2)s1 [compound 1094, reference compound] | – | – | 68 10^−6 cm/s | 0.5 | – | – | – | – | – | – | 111 nM | 3240 nM | 1710 nM | 3060 nM | – |
| Cn1cnnc1C1CCN(S(=O)(=O)c2cccc(Nc3ccc(OCc4ccccc4)nc3)c2)CC1 [compound 23, reference compound] | – | > 10000 nM | – | – | – | – | – | – | > 10000 nM | – | 4770 nM | – | 1840 nM | – | Papp A→B at 2 h ([2]; Caco-2, apical to basolateral, prior art compounds, Table 8): 3.5 ×10⁻⁶ cm/s; efflux ratio at 2 h ([2]; Caco-2, prior art compounds, Table 8): 17.6; IC50 [4]: 11.3 nM |
| Cn1cnnc1C1CCN(c2ncccc2-c2cccnc2)CC1 [SEN180, reference compound] | – | – | 4.2 10^−6 cm/s | – | – | – | – | – | – | – | – | 2970 nM | 176 nM | 868 nM | IC50 [5]: 170 nM |
| COCCOc1ncc(-c2cccc(C#N)c2N2CCC(c3nncn3C)CC2)cn1 [compound 3, reference compound] | 629 nM | 2740 nM | 93 10^−6 cm/s | 0.8 | 0.6 ×10⁻⁶ cm/s | 41.8 | 51 nM | 290 nM | 1400 nM | 11 nM | – | – | – | – | – |
| CNC(=O)c1cncc(-c2cccc(C#N)c2N2CCC(c3nncn3C)CC2)c1 [Example 80] | – | – | – | – | – | – | 11 nM | – | – | 2 nM | – | – | – | – | IC50 ([1]; compounds of the invention, Table 4, read-out: Inhibition of SIRα signalling induced by Raji cells: IC50): 336 nM; Permeability A-B (Caco-2 cells; [13]): 0.2 10^−6 cm/s; efflux ratio (Caco-2 cells; [13]): 37.8; IC50 ([3]; compounds of the invention, Table 4, read-out: Inhibition of SIRα signalling induced by A549 cells: IC50): 176 nM |
